{"source": "the OligoGym collection", "note": "Bases are written 5' to 3'; sugars and linkages follow in the same order, as letters with counts (s phosphorothioate, o phosphodiester; PS: all linkages phosphorothioate). The collection does not say whether C is 5-methylated. l = locked nucleic acid (LNA); d = 2'-deoxy (DNA)"}
{"molecular_target": "Tau", "assay": "rat primary cortical neurons, FLIPR, 25 uM ASO"}
{"sequence": "ACCCATCTTAATTCATTTAA (sugars l3 d14 l3, PS)", "calcium oscillation score": "96.1 % of control"}
{"sequence": "ACCCATTATCTGCTCC (sugars l3 d11 l2, PS)", "calcium oscillation score": "50.9 % of control"}
{"sequence": "ACCCCACATTTGCAAAC (sugars l3 d12 l2, PS)", "calcium oscillation score": "63.5 % of control"}
{"sequence": "ACCCCACATTTGCAAACC (sugars l2 d13 l3, PS)", "calcium oscillation score": "46.2 % of control"}
{"sequence": "ACCCCATTTTTGACATA (sugars l3 d12 l2, PS)", "calcium oscillation score": "73.1 % of control"}
{"sequence": "ACCCCGAATTTACACC (sugars l3 d11 l2, PS)", "calcium oscillation score": "97.5 % of control"}
{"sequence": "ACCCCGAATTTACACCC (sugars l1 d14 l2, PS)", "calcium oscillation score": "86.2 % of control"}
{"sequence": "ACCCTTACACATAGCTTC (sugars l2 d13 l3, PS)", "calcium oscillation score": "53.9 % of control"}
{"sequence": "ACCCTTAGACATAACA (sugars l4 d10 l2, PS)", "calcium oscillation score": "75.1 % of control"}
{"sequence": "ACCCTTAGACATAACAC (sugars l3 d10 l4, PS)", "calcium oscillation score": "59.7 % of control"}
{"sequence": "ACCCTTGATCATATTTGTGG (sugars l3 d14 l3, PS)", "calcium oscillation score": "30.9 % of control"}
{"sequence": "ACCGAACTGCGAGGAGCAGC (sugars l3 d14 l3, PS)", "calcium oscillation score": "0 % of control"}
{"sequence": "ACCTCATTAAGATCACC (sugars l2 d11 l4, PS)", "calcium oscillation score": "69.7 % of control"}
{"sequence": "ACCTCCTAGAACACAAC (sugars l4 d10 l3, PS)", "calcium oscillation score": "53.9 % of control"}
{"sequence": "ACCTCCTGGTTTAT (sugars l3 d8 l3, PS)", "calcium oscillation score": "89.7 % of control"}
{"sequence": "ACCTCCTGGTTTATGA (sugars l3 d10 l3, PS)", "calcium oscillation score": "32.2 % of control"}
{"sequence": "ACCTCCTGGTTTATGATGGA (sugars l3 d14 l3, PS)", "calcium oscillation score": "0 % of control"}
{"sequence": "ACCTCGTCAGCTAGCG (sugars l3 d10 l3, PS)", "calcium oscillation score": "65.2 % of control"}
{"sequence": "ACCTCTTAGTCATCTTCC (sugars l2 d13 l3, PS)", "calcium oscillation score": "74.4 % of control"}
{"sequence": "ACCTCTTAGTCATCTTCCC (sugars l2 d15 l2, PS)", "calcium oscillation score": "67.9 % of control"}
{"sequence": "ACCTGGCCACCTCCTG (sugars l3 d10 l3, PS)", "calcium oscillation score": "28.6 % of control"}
{"sequence": "ACCTTACCACTTTCAG (sugars l3 d10 l3, PS)", "calcium oscillation score": "104 % of control"}
{"sequence": "ACCTTGCTCAGGTCAACTGG (sugars l3 d14 l3, PS)", "calcium oscillation score": "2.59 % of control"}
{"sequence": "ACCTTTTTCCATCTTACT (sugars l4 d12 l2, PS)", "calcium oscillation score": "68.4 % of control"}
{"sequence": "ACCTTTTTCCATCTTACTAA (sugars l4 d13 l3, PS)", "calcium oscillation score": "52 % of control"}
{"sequence": "ACGCACCAGGAACCTTCCAG (sugars l3 d14 l3, PS)", "calcium oscillation score": "36.7 % of control"}
{"sequence": "ACGTGGGTGATATTGTCCAG (sugars l3 d14 l3, PS)", "calcium oscillation score": "0 % of control"}
{"sequence": "ACGTTGCTAAGATCCA (sugars l3 d10 l3, PS)", "calcium oscillation score": "18.1 % of control"}
{"sequence": "ACTAACTCTAAGTAGACCCT (sugars l3 d14 l3, PS)", "calcium oscillation score": "40.3 % of control"}
{"sequence": "ACTAATATTAACACTAT (sugars l4 d9 l4, PS)", "calcium oscillation score": "79.5 % of control"}
{"sequence": "ACTAGCCCACCCATCAATTT (sugars l3 d14 l3, PS)", "calcium oscillation score": "12.9 % of control"}
{"sequence": "ACTATGAAATCCTTCT (sugars l4 d8 l4, PS)", "calcium oscillation score": "92.1 % of control"}
{"sequence": "ACTCAAATCAATTCTCATTT (sugars l4 d12 l4, PS)", "calcium oscillation score": "70.1 % of control"}
{"sequence": "ACTCAACATTACCCTTAAA (sugars l4 d11 l4, PS)", "calcium oscillation score": "82.4 % of control"}
{"sequence": "ACTCAACATTACCCTTAAAT (sugars l4 d14 l2, PS)", "calcium oscillation score": "71.5 % of control"}
{"sequence": "ACTCAGTTCTCTATAAT (sugars l4 d9 l4, PS)", "calcium oscillation score": "64.1 % of control"}
{"sequence": "ACTCATCAACACCTTTTAAT (sugars l2 d14 l4, PS)", "calcium oscillation score": "63 % of control"}
{"sequence": "ACTCATTTACCAATTATCTT (sugars l2 d14 l4, PS)", "calcium oscillation score": "60.6 % of control"}
{"sequence": "ACTCTAAGTAGACCCTGGCC (sugars l3 d14 l3, PS)", "calcium oscillation score": "4.76 % of control"}
{"sequence": "ACTCTTAGCATCCACTT (sugars l4 d11 l2, PS)", "calcium oscillation score": "40.6 % of control"}
{"sequence": "ACTCTTTGAACACCCCA (sugars l2 d12 l3, PS)", "calcium oscillation score": "88.9 % of control"}
{"sequence": "ACTCTTTGAACACCCCAT (sugars l4 d12 l2, PS)", "calcium oscillation score": "38.3 % of control"}
{"sequence": "ACTGATCATAATCCTA (sugars l3 d9 l4, PS)", "calcium oscillation score": "81.1 % of control"}
{"sequence": "ACTGATCATAATCCTAC (sugars l4 d9 l4, PS)", "calcium oscillation score": "68.2 % of control"}
{"sequence": "ACTGCGAGGAGCAGCT (sugars l3 d10 l3, PS)", "calcium oscillation score": "48.1 % of control"}
{"sequence": "ACTGCTCAGCTAAGACCCTC (sugars l3 d14 l3, PS)", "calcium oscillation score": "23.9 % of control"}
{"sequence": "ACTGGCGACTTGTACACGAT (sugars l3 d14 l3, PS)", "calcium oscillation score": "0 % of control"}
{"sequence": "ACTGGTTAGCCCTAAA (sugars l3 d10 l3, PS)", "calcium oscillation score": "3.83 % of control"}
{"sequence": "ACTGGTTTGTAGACTATTTG (sugars l3 d14 l3, PS)", "calcium oscillation score": "0 % of control"}
{"sequence": "ACTGTTACACATTTATC (sugars l4 d9 l4, PS)", "calcium oscillation score": "79.8 % of control"}
{"sequence": "ACTTAAAATTTTTCTTATT (sugars l4 d11 l4, PS)", "calcium oscillation score": "75.1 % of control"}
{"sequence": "ACTTAAATTTATTTTCTTTT (sugars l4 d12 l4, PS)", "calcium oscillation score": "55.8 % of control"}
{"sequence": "ACTTACTGATCATAAT (sugars l4 d8 l4, PS)", "calcium oscillation score": "77.2 % of control"}
{"sequence": "ACTTATCTATCCATCTAT (sugars l4 d11 l3, PS)", "calcium oscillation score": "80.2 % of control"}
{"sequence": "ACTTATCTATCCATCTATT (sugars l3 d12 l4, PS)", "calcium oscillation score": "55.8 % of control"}
